{
  "source": "paper PMC8817134",
  "about": "“Galangin as a direct inhibitor of vWbp protects mice from Staphylococcus aureus‐induced pneumonia” (Journal of Cellular and Molecular Medicine, 2021)",
  "key": {"[1]": {"molecular_target": "T1, vWbp (von Willebrand factor-binding protein) (Staphylococcus aureus, UniProt Q93SM9)", "T1 construct": "gene vwb; His-tagged, pET15b, E. coli BL21(DE3), Ni-NTA purified", "assay": "fluorescence quenching", "conditions": "read-out: WT vWbp (converted)", "excerpt": "(§1) fluorescence quenching on vWbp (von Willebrand factor-binding protein)"}, "[2]": {"molecular_target": "T2, vWbp (von Willebrand factor-binding protein) (Staphylococcus aureus, UniProt Q93SM9, D70A)", "T2 construct": "gene vwb", "assay": "biochemical", "excerpt": "as §1"}, "[3]": {"molecular_target": "T3, vWbp (von Willebrand factor-binding protein) (Staphylococcus aureus, UniProt Q93SM9, L69A)", "T3 construct": "gene vwb", "assay": "biochemical", "excerpt": "as §1"}, "[4]": {"molecular_target": "T4, vWbp (von Willebrand factor-binding protein) (Staphylococcus aureus, UniProt Q93SM9, M83A)", "T4 construct": "gene vwb", "assay": "biochemical", "excerpt": "as §1"}, "[5]": {"molecular_target": "T5, vWbp (von Willebrand factor-binding protein) (Staphylococcus aureus, UniProt Q93SM9, W64A)", "T5 construct": "gene vwb", "assay": "biochemical", "excerpt": "as §1"}, "[6]": {"molecular_target": "T1, vWbp (von Willebrand factor-binding protein)", "assay": "tube and plate coagulation assay", "assay_type": "biochemical", "conditions": "purified vWbp added to heparinised rabbit blood or fibrinogen agarose, 37 °C; 16-256 μg/ml galangin"}, "[7]": {"molecular_target": "T1, vWbp (von Willebrand factor-binding protein)", "assay": "biolayer interferometry (Octet RED, Ni-NTA sensor)", "conditions": "read-out: binding constant"}},
  "note": "pKd: −log10 of the molar value.",
  "data": [
    {"smiles": "O=c1c(O)c(-c2ccccc2)oc2cc(O)cc(O)c12", "note": "[galangin, 3,5,7-trihydroxyflavone]", "values": [
      {"measurement": "Kd", "setting": "[1]", "result": 6.9, "unit": "µM"},
      {"measurement": "pKd", "setting": "[2]", "result": 5.01},
      {"measurement": "pKd", "setting": "[3]", "result": 4.51},
      {"measurement": "pKd", "setting": "[4]", "result": 5.13},
      {"measurement": "pKd", "setting": "[5]", "result": 4.70},
      {"measurement": "tube and plate coagulation assay", "setting": "[6]", "result": "these results demonstrated that galangin can inhibit the coagulase activity of vWbp"},
      {"measurement": "pKd", "setting": "[7]", "result": 4.96}
    ]}
  ]
}
